The NIST ThermoML archive (doi:10.1016/j.jct.2015.02.020)
± gives the expanded uncertainty stated by the source.

How the values were obtained:
[1] = refractive index (Na D-line) (dimensionless); xn = mol fraction of the nth substance listed; details: 101.3 kPa, Liquid, Standard Abbe refractometry
[2] = xn = mol fraction of the nth substance listed; details: 101.3 kPa, Liquid; for viscosity: Falling or rolling sphere viscometry; for speed of sound: Sing-around technique in a fixed-path interferometer; for mass density: Vibrating tube method

CC[n+]1ccc(C)cc1.O=S(=O)([N-]S(=O)(=O)C(F)(F)F)C(F)(F)F + O
Details | mass density, [2] [kg/m3] | refractive index, [1] | speed of sound, [2] [m/s] | viscosity, [2] [mPa·s]
298.15 K, x2 = 0.144 | 1479.48 ± 0.82 | 1.44235 ± 0.00039 | 1266.8 ± 1.5 | 24.89 ± 0.71
298.15 K, x2 = 0.201 | 1476.6 ± 0.88 | 1.44165 ± 0.00039 | 1268.3 ± 1.5 | 22.72 ± 0.64
298.15 K, x2 = 0.306 | 1469.91 ± 0.89 | 1.44005 ± 0.00039 | 1271.7 ± 1.4 | 19.35 ± 0.57
303.15 K, x2 = 0.144 | 1474.53 ± 0.82 | 1.44089 ± 0.00039 | 1255.4 ± 1.5 | 21.05 ± 0.63
303.15 K, x2 = 0.201 | 1471.63 ± 0.89 | 1.44016 ± 0.00039 | 1256.8 ± 1.5 | 19.29 ± 0.55
303.15 K, x2 = 0.306 | 1464.89 ± 0.92 | 1.43866 ± 0.00039 | 1260.3 ± 1.4 | 16.23 ± 0.47
308.15 K, x2 = 0.144 | 1469.61 ± 0.83 | 1.4394 ± 0.00038 | 1244.1 ± 1.5 | 18.04 ± 0.53
308.15 K, x2 = 0.201 | 1466.68 ± 0.96 | 1.43875 ± 0.00039 | 1245.5 ± 1.5 | 16.53 ± 0.47
308.15 K, x2 = 0.306 | 1459 ± 0.93 | 1.43719 ± 0.00039 | 1249.2 ± 1.4 | 13.95 ± 0.41
313.15 K, x2 = 0.144 | 1464.69 ± 0.83 | 1.43785 ± 0.00039 | 1232.9 ± 1.5 | 15.53 ± 0.45
313.15 K, x2 = 0.201 | 1461.75 ± 0.89 | 1.43727 ± 0.0004 | 1234.3 ± 1.5 | 14.31 ± 0.4
313.15 K, x2 = 0.306 | 1454.92 ± 0.93 | 1.4355 ± 0.00039 | 1238 ± 1.4 | 12.19 ± 0.35
318.15 K, x2 = 0.144 | 1459.79 ± 0.83 | 1.43674 ± 0.00039 | 1221.8 ± 1.5 | 13.59 ± 0.38
318.15 K, x2 = 0.201 | 1456.83 ± 0.9 | 1.4359 ± 0.00039 | 1223.2 ± 1.5 | 12.58 ± 0.35
318.15 K, x2 = 0.306 | 1449.95 ± 0.9 | 1.4346 ± 0.00038 | 1226.8 ± 1.4 | 10.74 ± 0.31
323.15 K, x2 = 0.144 | 1454.91 ± 0.83 | 1.43532 ± 0.00041 | 1210.9 ± 1.5 | 12.03 ± 0.33
323.15 K, x2 = 0.201 | 1451.92 ± 0.9 | 1.43441 ± 0.00037 | 1212.2 ± 1.5 | 11.15 ± 0.31
323.15 K, x2 = 0.306 | 1444.99 ± 0.91 | 1.43373 ± 0.00036 | 1215.7 ± 1.4 | 9.52 ± 0.27
328.15 K, x2 = 0.144 | 1450.05 ± 0.83 | 1.43396 ± 0.00041 | 1200.1 ± 1.5 | 10.7 ± 0.29
328.15 K, x2 = 0.201 | 1447.04 ± 0.9 | 1.43298 ± 0.00037 | 1201.3 ± 1.5 | 9.939 ± 0.27
328.15 K, x2 = 0.306 | 1440.05 ± 0.91 | 1.4324 ± 0.00035 | 1204.7 ± 1.4 | 8.473 ± 0.24
333.15 K, x2 = 0.144 | 1445.21 ± 0.83 | 1.43253 ± 0.00041 | 1189.4 ± 1.5 | 9.576 ± 0.26
333.15 K, x2 = 0.201 | 1442.18 ± 0.91 | 1.43159 ± 0.00037 | 1190.6 ± 1.5 | 8.902 ± 0.24
333.15 K, x2 = 0.306 | 1435.13 ± 0.91 | 1.43102 ± 0.00035 | 1193.9 ± 1.4 | 7.583 ± 0.22
338.15 K, x2 = 0.144 | 1440.39 ± 0.83 | 1.43108 ± 0.00041 | 1178.7 ± 1.5 | 8.598 ± 0.23
338.15 K, x2 = 0.201 | 1437.33 ± 0.91 | 1.43016 ± 0.00037 | 1179.9 ± 1.5 | 7.999 ± 0.22
338.15 K, x2 = 0.306 | 1430.22 ± 0.92 | 1.42965 ± 0.00035 | 1183 ± 1.4 | 6.83 ± 0.2
343.15 K, x2 = 0.144 | 1435.58 ± 0.83 | 1.42964 ± 0.0004 | 1168.2 ± 1.5 | 7.76 ± 0.2
343.15 K, x2 = 0.201 | 1432.49 ± 0.91 | 1.42874 ± 0.00037 | 1169.3 ± 1.5 | 7.221 ± 0.19
343.15 K, x2 = 0.306 | 1425.33 ± 0.92 | 1.42828 ± 0.00035 | 1172.2 ± 1.4 | –

CC[n+]1ccccc1.O=S(=O)([N-]S(=O)(=O)C(F)(F)F)C(F)(F)F [1-ethylpyridinium bis[(trifluoromethyl)sulfonyl]imide] + O
Details | mass density, [2] [kg/m3] | refractive index, [1] | speed of sound, [2] [m/s] | viscosity, [2] [mPa·s]
298.15 K, x2 = 0.16 | 1526.97 ± 1.1 | 1.43876 ± 0.00038 | 1270.7 ± 1.5 | 29.14 ± 0.96
298.15 K, x2 = 0.213 | 1523.14 ± 1.1 | 1.43815 ± 0.00038 | 1272.3 ± 1.5 | 25.97 ± 0.77
298.15 K, x2 = 0.311 | 1515.34 ± 1.1 | 1.43705 ± 0.00037 | 1276 ± 1.5 | 22.45 ± 0.65
303.15 K, x2 = 0.16 | 1521.95 ± 1.1 | 1.4374 ± 0.00037 | 1259.7 ± 1.5 | 24.71 ± 0.86
303.15 K, x2 = 0.213 | 1518.1 ± 1.1 | 1.43684 ± 0.00038 | 1261.3 ± 1.5 | 22.07 ± 0.67
303.15 K, x2 = 0.311 | 1510.26 ± 1.1 | 1.43552 ± 0.00037 | 1265 ± 1.5 | 18.74 ± 0.55
308.15 K, x2 = 0.16 | 1516.97 ± 1.1 | 1.43587 ± 0.00037 | 1248.8 ± 1.5 | 21.3 ± 0.74
308.15 K, x2 = 0.213 | 1513.09 ± 1.1 | 1.43539 ± 0.00037 | 1250.4 ± 1.5 | 18.95 ± 0.58
308.15 K, x2 = 0.311 | 1505.19 ± 1.1 | 1.43461 ± 0.00036 | 1254 ± 1.5 | 16.02 ± 0.48
313.15 K, x2 = 0.16 | 1512 ± 1.1 | 1.4344 ± 0.00036 | 1238 ± 1.5 | 18.53 ± 0.65
313.15 K, x2 = 0.213 | 1508.09 ± 1.1 | 1.43415 ± 0.00037 | 1239.6 ± 1.5 | 16.4 ± 0.51
313.15 K, x2 = 0.311 | 1500.14 ± 1.1 | 1.43318 ± 0.00036 | 1243.2 ± 1.4 | 13.8 ± 0.42
318.15 K, x2 = 0.16 | 1507.04 ± 1.1 | 1.43296 ± 0.00036 | 1227.4 ± 1.5 | 16.21 ± 0.57
318.15 K, x2 = 0.213 | 1503.11 ± 1.1 | 1.43277 ± 0.00036 | 1228.9 ± 1.5 | 14.34 ± 0.45
318.15 K, x2 = 0.311 | 1495.11 ± 1.1 | 1.43193 ± 0.00036 | 1232.4 ± 1.4 | 12.1 ± 0.37
323.15 K, x2 = 0.16 | 1502.11 ± 1.1 | 1.43144 ± 0.00036 | 1216.9 ± 1.5 | 14.16 ± 0.47
323.15 K, x2 = 0.213 | 1498.16 ± 1.1 | 1.43144 ± 0.00036 | 1218.3 ± 1.5 | 12.71 ± 0.39
323.15 K, x2 = 0.311 | 1490.1 ± 1.1 | 1.43082 ± 0.00035 | 1221.8 ± 1.4 | 10.71 ± 0.33
328.15 K, x2 = 0.16 | 1497.2 ± 1.1 | 1.43003 ± 0.00036 | 1206.4 ± 1.5 | 12.5 ± 0.39
328.15 K, x2 = 0.213 | 1493.22 ± 1.1 | 1.42994 ± 0.00035 | 1207.8 ± 1.5 | 11.35 ± 0.34
328.15 K, x2 = 0.311 | 1485.1 ± 1.1 | 1.42955 ± 0.00035 | 1211.2 ± 1.4 | 9.547 ± 0.3
333.15 K, x2 = 0.16 | 1492.3 ± 1.1 | 1.42859 ± 0.00036 | 1196.1 ± 1.5 | 11.14 ± 0.34
333.15 K, x2 = 0.213 | 1488.3 ± 1.1 | 1.42857 ± 0.00035 | 1197.4 ± 1.5 | 10.18 ± 0.3
333.15 K, x2 = 0.311 | 1480.12 ± 1.1 | 1.42824 ± 0.00035 | 1200.7 ± 1.4 | 8.555 ± 0.27
338.15 K, x2 = 0.16 | 1487.43 ± 1.1 | 1.42719 ± 0.00036 | 1185.9 ± 1.5 | 9.991 ± 0.3
338.15 K, x2 = 0.213 | 1483.4 ± 1.1 | 1.42725 ± 0.00035 | 1187.1 ± 1.5 | 9.164 ± 0.27
338.15 K, x2 = 0.311 | 1475.16 ± 1.1 | 1.42694 ± 0.00035 | 1190.3 ± 1.4 | 7.709 ± 0.24
343.15 K, x2 = 0.16 | 1482.56 ± 1.1 | 1.42569 ± 0.00036 | 1175.7 ± 1.5 | 9.019 ± 0.26
343.15 K, x2 = 0.213 | 1478.5 ± 1.1 | 1.42589 ± 0.00035 | 1176.9 ± 1.5 | 8.282 ± 0.24
343.15 K, x2 = 0.311 | 1470.22 ± 1.1 | 1.42551 ± 0.00035 | 1180 ± 1.4 | 6.971 ± 0.22
